According to patent US9382197B2, “Substituted hydroxamic acids and uses thereof” (Millennium Pharmaceuticals, Inc., priority 2010, dated 2016):

target: T1, purified human HDAC6 (Homo sapiens, UniProt Q9UBN7); assay: HDAC6 Enzyme Assay; format: biochemical; details: bin: greater than 500 nM and less than 1 μM (lower bound in nM, upper bound in μM)
T1 construct: purchased BPS Bioscience 5006
T1 sequence (Q9UBN7 1-1215): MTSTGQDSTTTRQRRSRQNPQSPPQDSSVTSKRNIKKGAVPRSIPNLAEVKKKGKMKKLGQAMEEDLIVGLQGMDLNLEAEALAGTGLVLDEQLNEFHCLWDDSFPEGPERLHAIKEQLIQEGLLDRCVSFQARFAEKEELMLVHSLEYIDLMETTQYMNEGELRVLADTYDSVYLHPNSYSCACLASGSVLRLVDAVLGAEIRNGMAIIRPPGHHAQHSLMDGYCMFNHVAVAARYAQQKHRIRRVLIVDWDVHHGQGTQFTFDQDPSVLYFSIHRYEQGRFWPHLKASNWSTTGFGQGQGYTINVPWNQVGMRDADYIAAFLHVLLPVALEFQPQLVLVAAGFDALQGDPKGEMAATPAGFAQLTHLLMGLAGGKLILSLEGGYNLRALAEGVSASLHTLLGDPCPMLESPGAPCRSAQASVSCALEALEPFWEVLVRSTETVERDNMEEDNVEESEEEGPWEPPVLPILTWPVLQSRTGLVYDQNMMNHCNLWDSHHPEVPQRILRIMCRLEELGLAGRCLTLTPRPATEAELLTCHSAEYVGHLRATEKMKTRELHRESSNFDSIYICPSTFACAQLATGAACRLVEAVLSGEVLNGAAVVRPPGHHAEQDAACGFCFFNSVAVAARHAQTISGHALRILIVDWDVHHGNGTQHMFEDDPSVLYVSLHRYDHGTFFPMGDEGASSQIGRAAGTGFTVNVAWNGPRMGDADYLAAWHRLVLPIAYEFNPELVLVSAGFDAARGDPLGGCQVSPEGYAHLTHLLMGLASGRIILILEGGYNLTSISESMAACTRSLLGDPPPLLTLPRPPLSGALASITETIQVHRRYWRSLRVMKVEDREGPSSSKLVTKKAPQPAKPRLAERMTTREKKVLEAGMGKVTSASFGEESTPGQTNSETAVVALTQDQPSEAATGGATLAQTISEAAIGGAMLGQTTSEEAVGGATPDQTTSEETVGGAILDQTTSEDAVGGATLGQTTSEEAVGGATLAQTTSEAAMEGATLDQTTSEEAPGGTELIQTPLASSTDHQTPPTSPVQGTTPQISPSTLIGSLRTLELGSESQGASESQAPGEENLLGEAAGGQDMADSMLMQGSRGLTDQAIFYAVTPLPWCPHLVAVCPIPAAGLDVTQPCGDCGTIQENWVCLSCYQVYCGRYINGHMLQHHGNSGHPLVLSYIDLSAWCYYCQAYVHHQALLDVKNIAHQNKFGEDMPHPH
Method in brief: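 Deacetylated product quantified after trypsin digestion as released AMC (340/460 nm), following a 1 h, 30 °C reaction of human HDAC6 with Ac-RGK(Ac)-AMC peptide, quenched by trichostatin A. IC50 derived from DMSO-normalized curves.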

Row | IC50 | Compound
1 | 500 to 1000 nM | CC(NC(=O)c1ccn(C)n1)c1cccc(C(=O)NO)c1 (stereo not shown) [Compound I-81, N-(1-{3-[(hydroxyamino)carbonyl]phenyl}ethyl)-1-methyl-1H-pyrazole-3-carboxamide]

same assay, conditions: bin: greater than 1 μM

Row | IC50 | Compound
2 | > 1000 nM | CC(NC(=O)c1c(Cl)cccc1Cl)c1cccc(C(=O)NO)c1 (stereo not shown) [Compound I-366, 2,6-dichloro-N-(1-{3-[(hydroxyamino)carbonyl]phenyl}ethyl)benzamide]
3 | > 1000 nM | CC(C)(C)C(NC(=O)C1CCCCC1)c1ccc(C(=O)NO)cc1 (stereo not shown) [Compound I-265, 4-{1-[(cyclohexylcarbonyl)amino]-2,2-dimethylpropyl}-N-hydroxybenzamide]
4 | > 1000 nM | CC(NC(=O)c1nc2ccccc2n1C)c1cccc(C(=O)NO)c1 (stereo not shown) [Compound I-100, N-(1-{3-[(hydroxyamino)carbonyl]phenyl}ethyl)-1-methyl-1H-benzimidazole-2-carboxamide]

Further lines, the compound ahead of its results:

Row | Compound | IC50
5 | CC(NC(=O)Cc1ccc2c(c1)OCO2)c1ccc(C(=O)NO)cc1 (stereo not shown) [Compound I-280, 4-{1-[(1,3-benzodioxol-5-ylacetyl)amino]ethyl}-N-hydroxybenzamide] | > 1000 nM
6 | CC(C)C(NC(=O)Cc1cc(C(F)(F)F)cc(C(F)(F)F)c1)c1ccc(C(=O)NO)cc1 (stereo not shown) [Compound I-250, 4-[1-({[3,5-bis(trifluoromethyl)phenyl]acetyl}amino)-2-methylpropyl]-N-hydroxybenzamide] | > 1000 nM
7 | CC(NC(=O)c1ccccc1C(F)(F)F)c1cccc(C(=O)NO)c1 (stereo not shown) [Compound I-57, N-(1-{3-[(hydroxyamino)carbonyl]phenyl}ethyl)-2-(trifluoromethyl)benzamide] | > 1000 nM
8 | CC(NC(=O)CC(C)(C)C)c1cccc(C(=O)NO)c1 (stereo not shown) [Compound I-333, 3-{1-[(3,3-dimethylbutanoyl)amino]ethyl}-N-hydroxybenzamide] | > 1000 nM
9 | C[C@@H](NC(=O)C1(C)CCCCC1)c1cccc(C(=O)NO)c1 [Compound I-283, N-hydroxy-3-((1R)-1-{[(1-methylcyclohexyl)carbonyl]amino}ethyl)benzamide] | > 1000 nM

same assay, conditions: purified human HDAC6, substrate Ac-Arg-Gly-Lys(Ac)-AMC, 1 hour at 30° C.; reported as bins

Row | IC50 | Compound
10 | < 100 nM | CC(C)C(NC(=O)c1ccc2nsnc2c1)c1ccc(C(=O)NO)cc1 (stereo not shown) [Compound I-135, N-(1-{4-[(hydroxyamino)carbonyl]phenyl}-2-methylpropyl)-2,1,3-benzothiadiazole-5-carboxamide]
11 | < 100 nM | Cc1ccc(C2(C(=O)NC(C)c3ccc(C(=O)NO)cc3)CC2)cc1 (stereo not shown) [Compound I-264, N-hydroxy-4-[1-({[1-(4-methylphenyl)cyclopropyl]carbonyl}amino)ethyl]benzamide]
12 | < 100 nM | CC(C)[C@@H](NC(=O)Nc1ccc2c(c1)CCO2)c1ccc(C(=O)NO)cc1 [Compound I-526, 4-((1R)-1-{[(2,3-dihydro-1-benzofuran-5-ylamino)carbonyl]amino}-2-methylpropyl)-N-hydroxybenzamide]
13 | 100 to 500 nM | CC(C)C(NC(=O)c1ccc(F)cc1)c1ccc(C(=O)NO)cc1 (stereo not shown) [Compound I-40, 4-fluoro-N-(1-{4-[(hydroxyamino)carbonyl]phenyl}-2-methylpropyl)benzamide]
14 | < 100 nM | CC(NC(=O)Nc1ccc(C#N)cc1)c1ccc(C(=O)NO)cc1 (stereo not shown) [Compound I-236, 4-[1-({[(4-cyanophenyl)amino]carbonyl}amino)ethyl]-N-hydroxybenzamide]
15 | < 100 nM | CC(NC(=O)C(C)(C)C)c1ccc(C(=O)NO)cc1 (stereo not shown) [Compound I-59, 4-{1-[(2,2-dimethylpropanoyl)amino]ethyl}-N-hydroxybenzamide]
16 | 100 to 500 nM | CC(NC(=O)c1cc2ccccc2o1)c1cccc(C(=O)NO)c1 (stereo not shown) [Compound I-401, N-(1-{3-[(hydroxyamino)carbonyl]phenyl}ethyl)-1-benzofuran-2-carboxamide]
17 | 100 to 500 nM | CC(C)C(NC(=O)c1cnccn1)c1ccc(C(=O)NO)cc1 (stereo not shown) [Compound I-203, N-(1-{4-[(hydroxyamino)carbonyl]phenyl}-2-methylpropyl)pyrazine-2-carboxamide]
18 | < 100 nM | C[C@H](NC(=O)c1cccn1C)c1ccc(C(=O)NO)cc1 [Compound I-25, N-((1S)-1-{4-[(hydroxyamino)carbonyl]phenyl}ethyl)-1-methyl-1H-pyrrole-2-carboxamide]
19 | < 100 nM | CCC[C@@H](NC(=O)c1oc2ccccc2c1C)c1ccc(C(=O)NO)cc1 [Compound I-367, N-((1R)-1-{4-[(hydroxyamino)carbonyl]phenyl}butyl)-3-methyl-1-benzofuran-2-carboxamide]
20 | 100 to 500 nM | CC(C)[C@@H](NC(=O)NC(C)(C)C)c1ccc(C(=O)NO)cc1 [Compound I-368, 4-((1R)-1-{[(tert-butylamino)carbonyl]amino}-2-methylpropyl)-N-hydroxybenzamide]
21 | 100 to 500 nM | CC(NC(=O)c1csc2ccccc12)c1cccc(C(=O)NO)c1 (stereo not shown) [Compound I-117, N-(1-{3-[(hydroxyamino)carbonyl]phenyl}ethyl)-1-benzothiophene-3-carboxamide]

Second part, the compound before the results:

Row | Compound | IC50
22 | CC(NC(=O)Nc1cccc(C(F)(F)F)c1)c1ccc(C(=O)NO)cc1 (stereo not shown) [Compound I-371, N-hydroxy-4-{1-[({[3-(trifluoromethyl)phenyl]amino}carbonyl)amino]ethyl}benzamide] | < 100 nM
23 | Cc1cccc(C(=O)NC(C)c2ccc(C(=O)NO)cc2)c1 (stereo not shown) [Compound I-295, N-(1-{4-[(hydroxyamino)carbonyl]phenyl}ethyl)-3-methylbenzamide] | < 100 nM
24 | Cc1c(C(=O)N[C@H](C)c2ccc(C(=O)NO)cc2)oc2ccccc12 [Compound I-237, N-((1R)-1-{4-[(hydroxyamino)carbonyl]phenyl}ethyl)-3-methyl-1-benzofuran-2-carboxamide] | < 100 nM
25 | CCC[C@@H](NC(=O)c1cccn1C)c1ccc(C(=O)NO)cc1 [Compound I-281, N-((1R)-1-{4-[(hydroxyamino)carbonyl]phenyl}butyl)-1-methyl-1H-pyrrole-2-carboxamide] | < 100 nM
26 | Cc1nc(-c2ccccc2)ncc1C(=O)NC(c1ccc(C(=O)NO)cc1)C(C)C (stereo not shown) [Compound I-17, N-(1-{4-[(hydroxyamino)carbonyl]phenyl}-2-methylpropyl)-4-methyl-2-phenylpyrimidine-5-carboxamide] | 100 to 500 nM
27 | CCC[C@@H](NC(=O)NC12CC3CC(CC(C3)C1)C2)c1ccc(C(=O)NO)cc1 [Compound I-18, 4-[(1R)-1-({[1-adamantylamino]carbonyl}amino)butyl]-N-hydroxybenzamide] | < 100 nM
28 | Cc1cccc(NC(=O)NC(C)c2ccc(C(=O)NO)cc2)c1 (stereo not shown) [Compound I-85, N-hydroxy-4-[1-({[(3-methylphenyl)amino]carbonyl}amino)ethyl]benzamide] | < 100 nM
29 | CC(C)(C)C(NC(=O)c1cscn1)c1ccc(C(=O)NO)cc1 (stereo not shown) [Compound I-123, N-(1-{4-[(hydroxyamino)carbonyl]phenyl}-2,2-dimethylpropyl)-1,3-thiazole-4-carboxamide] | 100 to 500 nM
30 | CC(NC(=O)c1cccs1)c1cccc(C(=O)NO)c1 (stereo not shown) [Compound I-267, N-(1-{3-[(hydroxyamino)carbonyl]phenyl}ethyl)thiophene-2-carboxamide] | 100 to 500 nM
31 | CC(NC(=O)Nc1cc(C(F)(F)F)ccc1F)c1ccc(C(=O)NO)cc1 (stereo not shown) [Compound I-334, 4-{1-[({[2-fluoro-5-(trifluoromethyl)phenyl]amino}carbonyl)amino]ethyl}-N-hydroxybenzamide] | < 100 nM
32 | CC(C)(C)c1ccc(C(=O)NC(c2ccc(C(=O)NO)cc2)C(C)(C)C)cc1 (stereo not shown) [Compound I-377, 4-tert-butyl-N-(1-{4-[(hydroxyamino)carbonyl]phenyl}-2,2-dimethylpropyl)benzamide] | 100 to 500 nM
33 | CC(C)[C@@H](NC(=O)NC12CC3CC(CC(C3)C1)C2)c1ccc(C(=O)NO)cc1 [Compound I-354, 4-[(1R)-1-({[1-adamantylamino]carbonyl}amino)-2-methylpropyl]-N-hydroxybenzamide] | < 100 nM
34 | CC(C)(C)C(NC(=O)c1cc2ccccc2o1)c1ccc(C(=O)NO)cc1 (stereo not shown) [Compound I-4, N-(1-{4-[(hydroxyamino)carbonyl]phenyl}-2,2-dimethylpropyl)-1-benzofuran-2-carboxamide] | < 100 nM
